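Step 1: Grow cells in 96-well plates. Step 2: Expose to compound for 48 hours at 5 concentrations. Step 3: Interpolate endpoints linearly; if unreached, use highest concentration. At the TGI there is no net growth.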 Where a SMILES comes first, the peptide text is derived from it. The star is where a group is joined. Cbz = O=C(OCc1ccccc1)*
These compounds were tested on HOP-62 NSCLC (assay: NCI tumour cell line growth inhibition, 48 h).

| Compound | TGI [µM] |
| --- | --- |
| CN(C)CCCC12CCCCC1=Nc1ccccc12 (centres undefined) | > 100 |
| CCOC(=O)CC[C@H](NC(=O)[C@H](N)Cc1ccc(N(CCCl)CCCl)cc1)C(=O)OCC | > 59.6 |
| CC#CCOC(=O)c1ccccc1OC(C)=O | > 100 |
| CN=C(N=Nc1c(O)[nH]c2ccccc12)SCC(=O)c1ccc(Br)cc1 | 20.7 |
| O=C1CCCC1CN1CCCC1 (centres undefined) | > 100 |
| CN(CC(=O)O)c1ncc2c(n1)CCCC2 | > 100 |
| COc1cc(NS(C)(=O)=O)ccc1Nc1c2ccccc2nc2c1[nH]c1ccc(NC3OC(CO)C(O)C(O)C3O)cc12 (centres undefined) | 0.208 |
| O=C(O)CCC(NC(=O)OCc1ccccc1)C(=O)NC(Cc1cnc[nH]1)C(=O)O (stereo not drawn) (Cbz-Glu-His-OH; configuration not given here) | > 100 |
| O=[N+]([O-])/C(C(Cl)=C(Cl)Cl)=C(/Cl)Sc1ccccc1 | 9.33 |
| Clc1ccc(C2C3COc4ccccc4C3=NN2c2ccccc2)cc1 (centres undefined) | > 100 |
| CCC(C)OC(=O)/C(Br)=C1/OC(=O)c2ccccc2-c2ccccc21 (centres undefined) | 35.1 |
| NC(=O)C(C(N)=O)=C(O)C(=O)/C=C(\O)c1ccccc1 | > 100 |
| Cc1cc(S(=O)(=O)Nc2n[nH]c(N)n2)c(SCC(=O)O)cc1Cl | > 10 |
| O=C(O)C(NCc1ccccc1)C(NCc1ccccc1)C(=O)O (centres undefined) | > 100 |
| CC(=O)c1[nH]c(NCc2ccccc2)c(C(=S)Nc2ccccc2)c1N | 40 |
| CC1CCC(=O)C(C(=O)CC2CC(=O)N(C)C(=O)C2)C1 (centres undefined) | > 100 |
| COc1ccc(-[n+]2nc(S(=O)(=O)O)c(/C=C/c3ccc(N(C)C)cc3)cc2C#N)cc1 | > 100 |

Each compound was assayed on HOP-92 NSCLC (assay: NCI tumour cell line growth inhibition, 48 h).

| Compound | TGI [µM] |
| --- | --- |
| CN(C)CCCC12CCCCC1=Nc1ccccc12 (centres undefined) | > 100 |
| CCOC(=O)CC[C@H](NC(=O)[C@H](N)Cc1ccc(N(CCCl)CCCl)cc1)C(=O)OCC | 18.3 |
| CC#CCOC(=O)c1ccccc1OC(C)=O | > 100 |
| CN=C(N=Nc1c(O)[nH]c2ccccc12)SCC(=O)c1ccc(Br)cc1 | > 52.4 |
| O=C1CCCC1CN1CCCC1 (centres undefined) | 12.6 |
| CN(CC(=O)O)c1ncc2c(n1)CCCC2 | > 100 |
| COc1cc(NS(C)(=O)=O)ccc1Nc1c2ccccc2nc2c1[nH]c1ccc(NC3OC(CO)C(O)C(O)C3O)cc12 (centres undefined) | 1.04 |
| O=C(O)CCC(NC(=O)OCc1ccccc1)C(=O)NC(Cc1cnc[nH]1)C(=O)O (stereo not drawn) (Cbz-Glu-His-OH; configuration not given here) | > 100 |
| O=[N+]([O-])/C(C(Cl)=C(Cl)Cl)=C(/Cl)Sc1ccccc1 | 3.85 |
| Clc1ccc(C2C3COc4ccccc4C3=NN2c2ccccc2)cc1 (centres undefined) | > 100 |
| CCC(C)OC(=O)/C(Br)=C1/OC(=O)c2ccccc2-c2ccccc21 (centres undefined) | 81.9 |
| NC(=O)C(C(N)=O)=C(O)C(=O)/C=C(\O)c1ccccc1 | > 100 |
| Cc1cc(S(=O)(=O)Nc2n[nH]c(N)n2)c(SCC(=O)O)cc1Cl | > 10 |
| O=C(O)C(NCc1ccccc1)C(NCc1ccccc1)C(=O)O (centres undefined) | > 100 |
| CC(=O)c1[nH]c(NCc2ccccc2)c(C(=S)Nc2ccccc2)c1N | 59.3 |
| CC1CCC(=O)C(C(=O)CC2CC(=O)N(C)C(=O)C2)C1 (centres undefined) | > 100 |
| COc1ccc(-[n+]2nc(S(=O)(=O)O)c(/C=C/c3ccc(N(C)C)cc3)cc2C#N)cc1 | > 100 |

The compounds below were run on HS 578T breast (assay: NCI tumour cell line growth inhibition, 48 h).

| Compound | TGI [µM] |
| --- | --- |
| CN(C)CCCC12CCCCC1=Nc1ccccc12 (centres undefined) | > 100 |
| CCOC(=O)CC[C@H](NC(=O)[C@H](N)Cc1ccc(N(CCCl)CCCl)cc1)C(=O)OCC | 52.7 |
| CC#CCOC(=O)c1ccccc1OC(C)=O | > 100 |
| CN=C(N=Nc1c(O)[nH]c2ccccc12)SCC(=O)c1ccc(Br)cc1 | > 40 |
| O=C1CCCC1CN1CCCC1 (centres undefined) | 55.7 |
| CN(CC(=O)O)c1ncc2c(n1)CCCC2 | > 100 |
| COc1cc(NS(C)(=O)=O)ccc1Nc1c2ccccc2nc2c1[nH]c1ccc(NC3OC(CO)C(O)C(O)C3O)cc12 (centres undefined) | 4.29 |
| O=C(O)CCC(NC(=O)OCc1ccccc1)C(=O)NC(Cc1cnc[nH]1)C(=O)O (stereo not drawn) (Cbz-Glu-His-OH; configuration not given here) | > 100 |
| O=[N+]([O-])/C(C(Cl)=C(Cl)Cl)=C(/Cl)Sc1ccccc1 | 7.14 |
| Clc1ccc(C2C3COc4ccccc4C3=NN2c2ccccc2)cc1 (centres undefined) | > 100 |
| CCC(C)OC(=O)/C(Br)=C1/OC(=O)c2ccccc2-c2ccccc21 (centres undefined) | > 100 |
| NC(=O)C(C(N)=O)=C(O)C(=O)/C=C(\O)c1ccccc1 | > 100 |
| Cc1cc(S(=O)(=O)Nc2n[nH]c(N)n2)c(SCC(=O)O)cc1Cl | > 10 |
| O=C(O)C(NCc1ccccc1)C(NCc1ccccc1)C(=O)O (centres undefined) | > 100 |
| CC(=O)c1[nH]c(NCc2ccccc2)c(C(=S)Nc2ccccc2)c1N | 58.9 |
| CC1CCC(=O)C(C(=O)CC2CC(=O)N(C)C(=O)C2)C1 (centres undefined) | > 100 |
| COc1ccc(-[n+]2nc(S(=O)(=O)O)c(/C=C/c3ccc(N(C)C)cc3)cc2C#N)cc1 | > 100 |

These compounds were tested on NCI/ADR-RES ovarian (assay: NCI tumour cell line growth inhibition, 48 h).

| Compound | TGI [µM] |
| --- | --- |
| CN(C)CCCC12CCCCC1=Nc1ccccc12 (centres undefined) | > 100 |
| CCOC(=O)CC[C@H](NC(=O)[C@H](N)Cc1ccc(N(CCCl)CCCl)cc1)C(=O)OCC | 30.9 |
| CC#CCOC(=O)c1ccccc1OC(C)=O | > 100 |
| CN=C(N=Nc1c(O)[nH]c2ccccc12)SCC(=O)c1ccc(Br)cc1 | 27 |
| O=C1CCCC1CN1CCCC1 (centres undefined) | 37.9 |
| CN(CC(=O)O)c1ncc2c(n1)CCCC2 | > 100 |
| COc1cc(NS(C)(=O)=O)ccc1Nc1c2ccccc2nc2c1[nH]c1ccc(NC3OC(CO)C(O)C(O)C3O)cc12 (centres undefined) | 45.8 |
| O=C(O)CCC(NC(=O)OCc1ccccc1)C(=O)NC(Cc1cnc[nH]1)C(=O)O (stereo not drawn) (Cbz-Glu-His-OH; configuration not given here) | > 100 |
| O=[N+]([O-])/C(C(Cl)=C(Cl)Cl)=C(/Cl)Sc1ccccc1 | 2.35 |
| Clc1ccc(C2C3COc4ccccc4C3=NN2c2ccccc2)cc1 (centres undefined) | > 100 |
| CCC(C)OC(=O)/C(Br)=C1/OC(=O)c2ccccc2-c2ccccc21 (centres undefined) | 71.4 |
| NC(=O)C(C(N)=O)=C(O)C(=O)/C=C(\O)c1ccccc1 | > 100 |
| Cc1cc(S(=O)(=O)Nc2n[nH]c(N)n2)c(SCC(=O)O)cc1Cl | > 10 |
| O=C(O)C(NCc1ccccc1)C(NCc1ccccc1)C(=O)O (centres undefined) | > 100 |
| CC(=O)c1[nH]c(NCc2ccccc2)c(C(=S)Nc2ccccc2)c1N | > 100 |
| CC1CCC(=O)C(C(=O)CC2CC(=O)N(C)C(=O)C2)C1 (centres undefined) | > 100 |
| COc1ccc(-[n+]2nc(S(=O)(=O)O)c(/C=C/c3ccc(N(C)C)cc3)cc2C#N)cc1 | > 100 |

Each compound was assayed on SF-268 CNS (assay: NCI tumour cell line growth inhibition, 48 h).

| Compound | TGI [µM] |
| --- | --- |
| CN(C)CCCC12CCCCC1=Nc1ccccc12 (centres undefined) | > 100 |
| CCOC(=O)CC[C@H](NC(=O)[C@H](N)Cc1ccc(N(CCCl)CCCl)cc1)C(=O)OCC | 19.7 |
| CC#CCOC(=O)c1ccccc1OC(C)=O | > 100 |
| CN=C(N=Nc1c(O)[nH]c2ccccc12)SCC(=O)c1ccc(Br)cc1 | > 48.7 |
| O=C1CCCC1CN1CCCC1 (centres undefined) | 48.5 |
| CN(CC(=O)O)c1ncc2c(n1)CCCC2 | > 100 |
| COc1cc(NS(C)(=O)=O)ccc1Nc1c2ccccc2nc2c1[nH]c1ccc(NC3OC(CO)C(O)C(O)C3O)cc12 (centres undefined) | 1.51 |
| O=C(O)CCC(NC(=O)OCc1ccccc1)C(=O)NC(Cc1cnc[nH]1)C(=O)O (stereo not drawn) (Cbz-Glu-His-OH; configuration not given here) | > 100 |
| O=[N+]([O-])/C(C(Cl)=C(Cl)Cl)=C(/Cl)Sc1ccccc1 | 5.71 |
| Clc1ccc(C2C3COc4ccccc4C3=NN2c2ccccc2)cc1 (centres undefined) | > 100 |
| CCC(C)OC(=O)/C(Br)=C1/OC(=O)c2ccccc2-c2ccccc21 (centres undefined) | > 100 |
| NC(=O)C(C(N)=O)=C(O)C(=O)/C=C(\O)c1ccccc1 | > 100 |
| Cc1cc(S(=O)(=O)Nc2n[nH]c(N)n2)c(SCC(=O)O)cc1Cl | > 10 |
| O=C(O)C(NCc1ccccc1)C(NCc1ccccc1)C(=O)O (centres undefined) | > 100 |
| CC(=O)c1[nH]c(NCc2ccccc2)c(C(=S)Nc2ccccc2)c1N | 55.3 |
| CC1CCC(=O)C(C(=O)CC2CC(=O)N(C)C(=O)C2)C1 (centres undefined) | > 100 |
| COc1ccc(-[n+]2nc(S(=O)(=O)O)c(/C=C/c3ccc(N(C)C)cc3)cc2C#N)cc1 | > 100 |

Each compound was assayed on SNB-75 CNS (assay: NCI tumour cell line growth inhibition, 48 h).

| Compound | TGI [µM] |
| --- | --- |
| CN(C)CCCC12CCCCC1=Nc1ccccc12 (centres undefined) | > 100 |
| CCOC(=O)CC[C@H](NC(=O)[C@H](N)Cc1ccc(N(CCCl)CCCl)cc1)C(=O)OCC | 35.3 |
| CC#CCOC(=O)c1ccccc1OC(C)=O | > 100 |
| CN=C(N=Nc1c(O)[nH]c2ccccc12)SCC(=O)c1ccc(Br)cc1 | 27.5 |
| O=C1CCCC1CN1CCCC1 (centres undefined) | 31 |
| CN(CC(=O)O)c1ncc2c(n1)CCCC2 | > 100 |
| COc1cc(NS(C)(=O)=O)ccc1Nc1c2ccccc2nc2c1[nH]c1ccc(NC3OC(CO)C(O)C(O)C3O)cc12 (centres undefined) | 0.388 |
| O=C(O)CCC(NC(=O)OCc1ccccc1)C(=O)NC(Cc1cnc[nH]1)C(=O)O (stereo not drawn) (Cbz-Glu-His-OH; configuration not given here) | > 100 |
| O=[N+]([O-])/C(C(Cl)=C(Cl)Cl)=C(/Cl)Sc1ccccc1 | 28.8 |
| Clc1ccc(C2C3COc4ccccc4C3=NN2c2ccccc2)cc1 (centres undefined) | 98.9 |
| CCC(C)OC(=O)/C(Br)=C1/OC(=O)c2ccccc2-c2ccccc21 (centres undefined) | > 100 |
| NC(=O)C(C(N)=O)=C(O)C(=O)/C=C(\O)c1ccccc1 | > 100 |
| Cc1cc(S(=O)(=O)Nc2n[nH]c(N)n2)c(SCC(=O)O)cc1Cl | > 10 |
| O=C(O)C(NCc1ccccc1)C(NCc1ccccc1)C(=O)O (centres undefined) | > 100 |
| CC(=O)c1[nH]c(NCc2ccccc2)c(C(=S)Nc2ccccc2)c1N | > 100 |
| CC1CCC(=O)C(C(=O)CC2CC(=O)N(C)C(=O)C2)C1 (centres undefined) | > 100 |
| COc1ccc(-[n+]2nc(S(=O)(=O)O)c(/C=C/c3ccc(N(C)C)cc3)cc2C#N)cc1 | > 100 |

The compounds below were run on UACC-257 melanoma (assay: NCI tumour cell line growth inhibition, 48 h).

| Compound | TGI [µM] |
| --- | --- |
| CN(C)CCCC12CCCCC1=Nc1ccccc12 (centres undefined) | > 100 |
| CCOC(=O)CC[C@H](NC(=O)[C@H](N)Cc1ccc(N(CCCl)CCCl)cc1)C(=O)OCC | 37.9 |
| CC#CCOC(=O)c1ccccc1OC(C)=O | > 100 |
| CN=C(N=Nc1c(O)[nH]c2ccccc12)SCC(=O)c1ccc(Br)cc1 | > 20 |
| O=C1CCCC1CN1CCCC1 (centres undefined) | 30.9 |
| CN(CC(=O)O)c1ncc2c(n1)CCCC2 | > 100 |
| COc1cc(NS(C)(=O)=O)ccc1Nc1c2ccccc2nc2c1[nH]c1ccc(NC3OC(CO)C(O)C(O)C3O)cc12 (centres undefined) | 11 |
| O=C(O)CCC(NC(=O)OCc1ccccc1)C(=O)NC(Cc1cnc[nH]1)C(=O)O (stereo not drawn) (Cbz-Glu-His-OH; configuration not given here) | > 100 |
| O=[N+]([O-])/C(C(Cl)=C(Cl)Cl)=C(/Cl)Sc1ccccc1 | 2.55 |
| Clc1ccc(C2C3COc4ccccc4C3=NN2c2ccccc2)cc1 (centres undefined) | > 100 |
| CCC(C)OC(=O)/C(Br)=C1/OC(=O)c2ccccc2-c2ccccc21 (centres undefined) | > 100 |
| NC(=O)C(C(N)=O)=C(O)C(=O)/C=C(\O)c1ccccc1 | > 100 |
| Cc1cc(S(=O)(=O)Nc2n[nH]c(N)n2)c(SCC(=O)O)cc1Cl | > 10 |
| O=C(O)C(NCc1ccccc1)C(NCc1ccccc1)C(=O)O (centres undefined) | > 100 |
| CC(=O)c1[nH]c(NCc2ccccc2)c(C(=S)Nc2ccccc2)c1N | 49.2 |
| CC1CCC(=O)C(C(=O)CC2CC(=O)N(C)C(=O)C2)C1 (centres undefined) | > 100 |
| COc1ccc(-[n+]2nc(S(=O)(=O)O)c(/C=C/c3ccc(N(C)C)cc3)cc2C#N)cc1 | > 100 |

Reference: PubChem BioAssay (NCI)
